Assay results as given in patent publication US7354927B2, “6H-[1]benzopyrano[4,3-b]quinolines and their use as estrogenic agents” (Wyeth, priority 2004, dated 2008).

Columns and labels:
[1] = target: T1, human ERα (Homo sapiens, UniProt P03372); assay: Competition with [3H]-17β-estradiol for binding to the ERα ligand binding domain; details: E. coli lysate expressing human ERα LBD; 2 nM [3H]-17β-estradiol; 5-15 hours at room temperature
T1 construct: made in house; host or cells: E. coli (crude lysate)
T1 sequence (P03372 311-547 limits assumed): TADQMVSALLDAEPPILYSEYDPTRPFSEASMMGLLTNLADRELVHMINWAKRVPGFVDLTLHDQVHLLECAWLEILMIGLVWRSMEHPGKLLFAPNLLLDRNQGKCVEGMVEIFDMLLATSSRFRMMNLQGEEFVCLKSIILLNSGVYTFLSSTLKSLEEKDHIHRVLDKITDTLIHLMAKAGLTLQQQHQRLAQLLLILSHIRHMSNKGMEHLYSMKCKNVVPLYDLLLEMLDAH
Experimental: (§1) Representative examples of the invention were evaluated for their ability to compete with 17β-estradiol for both ERα and ERβ. The test procedure used allows one to determine whether a particular compound binds to the estrogen receptor (and is therefore “estrogenic”) and whether there is selectivity for ERα or ERβ. […] The IC50 is defined as the concentration of compound that decreases total 17β-estradiol binding by 50%. The procedure used is briefly described. A crude lysate of E. coil expressing the estrogen receptor ligand binding domains (D, E, and F) of human ERα or ERβ was prepared. Both receptors and compounds were diluted in 1× Dulbecco's phosphate buffered saline (DPBS) supplemented with 1 mM ethylenediamine tetraacetic acid (EDTA). Using a high binding masked microtiter plate, 100 uL of receptor (1 uG/well) was combined with 2 nM [^3H]-17β-estradiol and various concentrations of compound. After between 5 and 15 hours at room temperature, the plates were washed with DPBS/1 mM EDTA and bound radioactivity determined by liquid scintillation counting.

[2] = target: T2, human ERβ (Homo sapiens, UniProt Q92731); assay: Competition with [3H]-17β-estradiol for binding to the ERβ ligand binding domain; details: for IC50: E. coli lysate expressing human ERβ LBD, 2 nM [3H]-17β-estradiol, 5-15 hours at room temperature
T2 construct: made in house; host or cells: E. coli (crude lysate)
T2 sequence (Q92731 264-498 limits assumed): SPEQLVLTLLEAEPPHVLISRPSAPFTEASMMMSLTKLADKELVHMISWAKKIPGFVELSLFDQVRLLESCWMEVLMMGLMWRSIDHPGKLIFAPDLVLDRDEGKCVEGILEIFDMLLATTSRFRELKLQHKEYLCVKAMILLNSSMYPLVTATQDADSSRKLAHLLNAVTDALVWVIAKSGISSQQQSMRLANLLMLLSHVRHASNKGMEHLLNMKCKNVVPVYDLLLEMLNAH
Experimental: as §1

SMILES | IC50 [1] [nM] | melting point | IC50 [2] [nM] | α/β receptor selectivity (ratio of ERα IC50 to ERβ IC50) [2]
C=Cc1c2c(nc3ccc(O)cc13)-c1ccc(O)cc1OC2 [Cpd 8, 3,9-DIHYDROXY-7-VINYL-6H-CHROMENO[4,3-b]QUINOLINE] | 548 | 160 °C (dec.) | 31 | 18
C[Si](C)(C)C#Cc1c2c(nc3ccc(O)cc13)-c1ccc(O)cc1OC2 [Cpd 9, 3,9-DIHYDROXY-7-[(TRIMETHYLSILYL)ETHYNYL]-6H-CHROMENO[4,3-b]QUINOLINE] | 169 | 160 °C (dec.) | 225 | 0.8
N#Cc1ccc(-c2c3c(nc4ccc(O)cc24)-c2ccc(O)cc2OC3)cc1 [Cpd 14, 7-(4-CYANOPHENYL)-3,9-DIHYDROXY-6H-CHROMENO[4,3-b]QUINOLINE] | 1420 | 295 °C (dec.) | 82 | 17
Oc1ccc2c(c1)OCc1c-2nc2ccc(O)cc2c1-c1ccc(Cl)cc1 [Cpd 13, 7-(4-CHLOROPHENYL)-3,9-DIHYDROXY-6H-CHROMENO[4,3-b]QUINOLINE] | 3090 | 215 to 218 °C (dec.) | 160 | 19
Oc1ccc2c(c1)OCc1c-2nc2ccc(O)cc2c1-c1cccc(Cl)c1 [Cpd 17, 7-(3-CHLOROPHENYL)-3,9-DIHYDROXY-6H-CHROMENO[4,3-b]QUINOLINE] | 505 | 162 to 165 °C (dec.) | 130 | 4
CCc1c2c(nc3ccc(O)cc13)-c1ccc(O)cc1OC2 [Cpd 11, 3,9-DIHYDROXY-7-ETHYL-6H-CHROMENO[4,3-b]QUINOLINE] | 66 | 145 °C (dec.) | 5 | 13
Oc1ccc2c(c1)OCc1c-2nc2ccc(O)cc2c1Cl [Cpd 6, 7-CHLORO-3,9-DIHYDROXY-6H-CHROMENO[4,3-b]QUINOLINE] | 88 | 235 °C (dec.) | 3.3 | 27
N#Cc1cccc(-c2c3c(nc4ccc(O)cc24)-c2ccc(O)cc2OC3)c1 [Cpd 19, 7-(3-CYANOPHENYL)-3,9-DIHYDROXY-6H-CHROMENO[4,3-b]QUINOLINE] | 1130 | 275 °C (dec.) | 150 | 8
COc1ccc2c(c1)OCc1c-2nc2ccc(OC)cc2c1Br [Cpd 5, 7-BROMO-3,9-DIMETHOXY-6H-CHROMENO[4,3-b]QUINOLINE] |  | 196 to 197 °C |  | 
N#Cc1c2c(nc3ccc(O)cc13)-c1ccc(O)cc1OC2 [Cpd 12, 7-CYANO-3,9-DIHYDROXY-6H-CHROMENO[4,3-b]QUINOLINE] | 40 |  | 5.6 | 7
COc1ccc2c(c1)OCc1c-2nc2ccc(OC)cc2c1Cl [Cpd 4, 7-CHLORO-3,9-DIMETHOXY-6H-CHROMENO[4,3-b]QUINOLINE] |  | 190 to 191 °C |  | 
Oc1ccc2c(c1)OCc1c-2nc2ccc(O)cc2c1-c1ccc(C(F)(F)F)cc1 [Cpd 16, 3,9-DIHYDROXY-7-[4-(TRIFLUOROMETHYL)PHENYL]-6H-CHROMENO[4,3-b]QUINOLINE] | 6090 | 175 to 177 °C (dec.) | 137 | 44
COc1ccc(-c2c3c(nc4ccc(O)cc24)-c2ccc(O)cc2OC3)cc1 [Cpd 15, 3,9-DIHYDROXY-7-(4-METHOXYPHENYL)-6H-CHROMENO[4,3-b]QUINOLINE] | 357 | 195 °C (dec.) | 61 | 6
Oc1ccc2c(c1)OCc1c-2nc2ccc(O)cc2c1Br [Cpd 7, 7-BROMO-3,9-DIHYDROXY-6H-CHROMENO[4,3-b]QUINOLINE] | 63 | 240 °C (dec.) | 3.6 | 18
C#Cc1c2c(nc3ccc(O)cc13)-c1ccc(O)cc1OC2 [Cpd 10, 3,9-DIHYDROXY-7-ETHYNYL-6H-CHROMENO[4,3-b]QUINOLINE] | 131 | 220 °C (dec.) | 37 | 3
COc1cccc(-c2c3c(nc4ccc(O)cc24)-c2ccc(O)cc2OC3)c1 [Cpd 18, 3,9-DIHYDROXY-7-(3-METHOXYPHENYL)-6H-CHROMENO[4,3-b]QUINOLINE] | 820 | 155 to 158 °C (dec.) | 86 | 10
